Each structure is given as a SMILES string.

Assay [1] deals with HT-1080. The experiment in a line: Compound was tested for inhibition of proliferation of HT1080 cells. It counts as functional, cell-based. Particulars: Homo sapiens.
The target of assay [2] is Histone deacetylase (HDAC1 and HDAC2) (Homo sapiens, UniProt Q13547+Q92769). Put plainly: Inhibitory activity against mixture of histone deacetylase 1 (HDAC1) and histone deacetylase 2 (HDAC2) from nuclear extraction of K562 erythroleukemia cells.
Assay [3] relates to MDA-MB-435. Put plainly: Compound was tested for inhibition of proliferation of MDA-435 cells. It counts as functional, cell-based. Particulars: Homo sapiens.

As usually defined, the IC50 is the concentration that inhibits the measured activity by half. On to `CNC(=O)C(=O)CCCCCCC(=O)Nc1cnc2ccccc2c1`, for which the IC50 was found to be 2900 nM in assay [1], 9.5 nM in assay [2] and 4000 nM in assay [3].

Take `CNC(=O)C(=O)CCCCCO/N=C\c1ccc(-c2ccccc2)cc1`: in assay [2], the IC50 was 853 nM.

As for `CNC(=O)C(=O)CCCCCCC(=O)Nc1ccccc1`, the concentration for half-maximal inhibition (IC50) in assay [2] is reported as 338 nM.

Take `CNC(=O)C(=O)CCCCCCC(=O)Nc1nc2ccccc2s1`: the IC50 in assay [1] came out at 13000 nM; in assay [2] it was 133 nM; in assay [3], 14000 nM.

Consider `CNC(=O)C(=O)CCCCCCC(=O)Nc1cccc(-c2ccccc2)c1`, for which, in assay [2], the IC50 stood at 3.7 nM.

On to `CNC(=O)C(=O)CCCCCCS(=O)(=O)c1ccc(-c2ccccc2)cc1`, for which the IC50 in assay [2] worked out at 143 nM.

Turning to `CNC(=O)C(=O)CCCCCCC(=O)Nc1nc(-c2ccc3c(c2)CCCC3)cs1`, the figures for the IC50 in assay [1], in assay [2] and in assay [3] were above 50000 nM, 1.4 nM and above 50000 nM, respectively.

Consider `CNC(=O)C(=O)CCCCCCC(=O)Nc1nc(-c2ccc(CCN(C)C)cc2)cs1`, for which the half-inhibitory concentration (IC50) amounted to 120 nM in assay [1], 3.1 nM in assay [2] and 160 nM in assay [3].

Take `CNC(=O)C(=O)CCCCCCC(=O)Nc1nc(-c2ccncc2)cs1`: the IC50 in assay [1] came out at 670 nM; in assay [3] it was 2000 nM.

Consider `CNC(=O)C(=O)CCCCCCNS(=O)(=O)c1ccc(-c2ccccc2)cc1`, for which the half-inhibitory concentration (IC50) in assay [2] is 241 nM.

Take `CNC(=O)C(=O)CCCCCCC(=O)Nc1ccc2cc[nH]c2c1`: the IC50 came out at 3400 nM in assay [1], 18 nM in assay [2] and 4500 nM in assay [3].

Consider `CNC(=O)C(=O)CCCCCCSc1ccc(-c2ccccc2)cc1`, for which the IC50 in assay [2] is reported as 526 nM.

Take `CNC(=O)C(=O)CCCCCCOc1ccc(-c2ccccc2)cc1`: the IC50 in assay [2] is 0.11 nM.

Turning to `O=C(O)CNC(=O)C(=O)CCCCCCOc1ccc(-c2ccccc2)cc1`, the IC50 in assay [2] was above 50 nM.

For `NC(=O)C(=O)CCCCCCOc1ccc(-c2ccccc2)cc1`, the IC50 in assay [2] was above 50 nM.

Consider `CN(C)C(=O)C(=O)CCCCCCOc1ccc(-c2ccccc2)cc1`, for which the IC50 in assay [2] is above 5 nM.

For the compound `O=C(O)C(=O)CCCCCCOc1ccc(-c2ccccc2)cc1`, in assay [2], the IC50 is 3.7 nM.

For the compound `CN(C)CCNC(=O)C(=O)CCCCCCOc1ccc(-c2ccccc2)cc1`, the IC50 in assay [2] is recorded as above 50 nM.

Regarding `CNC(=O)C(=O)CCCCCCNC(=O)c1cccc(-c2ccccc2)c1`, the IC50 in assay [2] is 21 nM.

With `CCNC(=O)C(=O)CCCCCCOc1ccc(-c2ccccc2)cc1`, in assay [2], the IC50 is 4.9 nM.

Turning to `COC(=O)C(=O)CCCCCOc1ccc(-c2ccccc2)cc1`, in assay [2], the IC50 stood at 0.082 nM.

As for `CNC(=O)C(=O)CCCCCCC(=O)Nc1cccc(Oc2ccccc2)c1`, the IC50 turned out to be 35000 nM in assay [1], 1041 nM in assay [2] and 39000 nM in assay [3].

Consider `CNC(=O)C(=O)CCCCCCC(=O)Nc1nc(-c2ccc(OC)cc2)cs1`, for which the IC50 in assay [1] is 2700 nM; in assay [2], 9.1 nM; in assay [3], 5800 nM.

In the case of `CNC(=O)C(=O)COCCCCOc1ccc(-c2ccccc2)cc1`, the IC50 in assay [2] is above 10000 nM.

Turning to `CNC(=O)C(=O)C#CCCCCOc1ccc(-c2ccccc2)cc1`, the IC50 in assay [2] is listed as above 1000 nM.

As for `CNC(=O)C(=O)CCCCCCC(=O)Nc1nc(-c2ccccc2)cs1`, the IC50 in assay [1] stood at 1200 nM; in assay [2] it was 11 nM; in assay [3], 3100 nM.

Consider `CNC(=O)C(=O)CCCCCCC(=O)Nc1ccc2ccccc2c1`, for which the IC50 in assay [1] came out at 17000 nM; in assay [2] it was 9.4 nM; in assay [3], 22000 nM.

For `COC(=O)C(=O)CCCCCCCOc1ccc(-c2ccccc2)cc1`, in assay [2], the IC50 came out at 0.109 nM.

On to `COC(=O)C(=O)CCCCCCOc1ccc(-c2ccccc2)cc1`, for which the IC50 in assay [2] was 0.062 nM.

Take `CNC(=O)C(=O)CCCCCCC(=O)Nc1ccc(-c2ccccc2)cc1`: the IC50 in assay [2] was 201 nM.
